{"source": "patent US20100190794A1", "about": "“Herbicidally Active Composition” (BASF SE, priority 2007, published 2010)", "test_in_all_cases": "greenhouse test, pre-emergence treatment", "key": {"DIGSA": {"test_system": "DIGSA", "format": "in vivo, Digitaria sanguinalis", "conditions": "Use Example 22", "from_the_text": "(§1) The culture containers used were plastic pots containing loamy sand with approximately 3.0% of humus as substrate. The seeds of the test plants were sown separately for each species.\n(§2) For the pre-emergence treatment, the active compounds, suspended or emulsified in water, were applied directly after sowing by means of finely distributing nozzles. The containers were irrigated gently to promote germination and growth and subsequently covered with transparent plastic hoods until the plants had rooted. This cover caused uniform germination of the test plants unless this was adversely affected by the active compounds.\n(§3) Depending on the species, the plants were kept at 10-25° C. and 20-35° C., respectively. The test period extended over 2 to 4 weeks. During this time, the plants were tended and their response to the individual treatments was evaluated.\n(§4) Evaluation was carried out using a scale from 0 to 100. 100 means no emergence of the plants, or complete destruction of at least the above-ground parts, and 0 means no damage or normal course of growth. Good herbicidal activity is given at values of at least 70, and very good herbicidal activity is given at values of at least 85.\n(§5) The respective stated components A and B, and if appropriate, C were formulated as a 5% by weight or 10% by weight strength emulsion concentrate or a commercially available formulation of component B was used and, with addition of the amount of solvent system, introduced into the spray liquor used for applying the active compound. In the examples, the solvent used was water.\n(§6) The test period extended over 20 or 21 days. During this time, the plants were tended, and their reactions to the treatment with active compound was monitored.\n(§7) What was evaluated was the damage by the chemical compositions using a scale of from 0 to 100%, in comparison to the untreated control plants. 0 means no damage, and 100 means complete destruction of the plants.\n(§8) In the examples below, using the method of S. R. Colby (1967) “Calculating synergistic and antagonistic responses of herbicide combinations”, Weeds 15, p. 22 ff., the value E, which is expected if the activity of the individual active compounds is only additive, was calculated.\n(§9) where X=percent activity using active compound A at an application rate a; Y=percent activity using active compound B at an application rate b; E=expected activity (in %) by A+B at application rates a+b.\n(§10) If the value found in experiments is higher than the value E calculated according to Colby, a synergistic effect is present."}, "BRAPL": {"test_system": "BRAPL", "format": "in vivo, Brachiaria plantaginea", "conditions": "Use Example 12", "from_the_text": "as §1, §2, §3, §4, §5, §6, §7, §8, §9, §10"}, "ECHCG": {"test_system": "ECHCG", "format": "in vivo, Echinochloa crus-galli", "conditions": "Use Example 22", "from_the_text": "as §1, §2, §3, §4, §5, §6, §7, §8, §9, §10"}, "LOLMU": {"test_system": "LOLMU", "format": "in vivo, Lolium multiflorum", "conditions": "25 g/ha a.s., Use Example 11", "from_the_text": "as §1, §2, §3, §4, §5, §6, §7, §8, §9, §10"}, "LAMPU": {"test_system": "LAMPU", "format": "in vivo, Lamium purpureum", "conditions": "25 g/ha a.s., Use Example 11", "from_the_text": "as §1, §2, §3, §4, §5, §6, §7, §8, §9, §10"}, "SOLNI": {"test_system": "SOLNI", "format": "in vivo, Solanum nigrum L.", "conditions": "Use Example 22", "from_the_text": "as §1, §2, §3, §4, §5, §6, §7, §8, §9, §10"}, "SETVI": {"test_system": "SETVI", "format": "in vivo, Setaria viridis", "conditions": "25 g/ha a.s., Use Example 11", "from_the_text": "as §1, §2\nDepending on the species, the plants were kept at 10-25° C. and 20-35° C., respectively. […] During this time, the plants were tended and their response to the individual treatments was evaluated. […]\nas §6\nWhat was evaluated was the damage by the chemical compositions using a scale of from 0 to 100%, in comparison to the untreated control plants. […]\nIn the examples below, using the method of S. R. Colby (1967) “Calculating synergistic and antagonistic responses of herbicide combinations”, Weeds 15, p. 22 ff., the value E, which is expected if the activity of the individual active compounds is only additive, was calculated. […]"}, "SETFA": {"test_system": "SETFA", "format": "in vivo, Setaria faberi", "from_the_text": "as §1, §2, §3, §4, §5, §6, §7, §8, §9, §10"}}, "data": [{"compound": "Cn1nc(C(F)(F)F)c(CS(=O)(=O)C2=NOC(C)(C)C2)c1OC(F)F", "note": "[Pyroxasulfone]", "values": [{"measurement": "Herbicidal action in % after 20 days against DIGSA", "setting": "DIGSA; 6.25 g/ha a.s.", "result": 70, "unit": "%"}, {"measurement": "Herbicidal action in % after 20 days against DIGSA", "setting": "DIGSA; 13 g/ha a.s.", "result": 95, "unit": "%"}, {"measurement": "Herbicidal action in % after 20 days against BRAPL", "setting": "BRAPL; 12.5 g/ha a.s.", "result": 40, "unit": "%"}, {"measurement": "Herbicidal action in % after 20 days against BRAPL", "setting": "BRAPL; 25 g/ha a.s.", "result": 75, "unit": "%"}, {"measurement": "Herbicidal action in % after 20 days against ECHCG", "setting": "ECHCG; 6.25 g/ha a.s.", "result": 55, "unit": "%"}, {"measurement": "Herbicidal action in % after 20 days against ECHCG", "setting": "ECHCG; 13 g/ha a.s.", "result": 85, "unit": "%"}, {"measurement": "Herbicidal action in % after 21 days against LOLMU", "setting": "LOLMU", "result": 90, "unit": "%"}, {"measurement": "Herbicidal action in % after 21 days against LAMPU", "setting": "LAMPU", "result": 55, "unit": "%"}, {"measurement": "Herbicidal action in % after 20 days against SOLNI", "setting": "SOLNI; 6.25 g/ha a.s.", "result": 40, "unit": "%"}, {"measurement": "Herbicidal action in % after 20 days against SOLNI", "setting": "SOLNI; 13 g/ha a.s.", "result": 85, "unit": "%"}, {"measurement": "Herbicidal action in % after 21 days against SETVI", "setting": "SETVI", "result": 100, "unit": "%"}, {"measurement": "Herbicidal action in % after 20 days against SETFA", "setting": "SETFA; 6.25 g/ha a.s., Use Example 22", "result": 75, "unit": "%"}, {"measurement": "Herbicidal action in % after 20 days against SETFA", "setting": "SETFA; 12.5 g/ha a.s., Use Example 12", "result": 75, "unit": "%"}, {"measurement": "Herbicidal action in % after 20 days against SETFA", "setting": "SETFA; 13 g/ha a.s., Use Example 22", "result": 98, "unit": "%"}, {"measurement": "Herbicidal action in % after 20 days against SETFA", "setting": "SETFA; 25 g/ha a.s., Use Example 12", "result": 98, "unit": "%"}]}]}
